The values that follow come from patent publication US20260109731A1, “NE[…] USE THEREOF” (HUNAN MINGRUI PHARMACEUTICAL CO., LTD., priority 2023, published 2026).

Values joined by “and” are separate entries in the source; they are usually repeats but may differ in a detail not shown here. Identical values can stand only once.

A short description of the data set: In vitro phase I metabolic stability in male SD rat hepatic microsomes. In kind it is in vitro ADME. The settings on record: for Peak area ratio (test compound/testosterone-D3 (internal standard)), mean value: mean of triplicate; for Peak area ratio (test compound/testosterone-D3 (internal standard)): single replicates -1, -2, -3. As to the method: Phase I metabolic stability kit (purchased from HUIZHI HEYUAN BIOTECHNOLOGY (BEIJING) CO., LTD), with the following components of the product:
Positive substrate testosterone solution (10 mM): diluted with acetonitrile to prepare a 200 μM solution for later use; stop solution & internal standard (testosterone-D3): dissolved with acetonitrile to prepare a 5 ng/mL solution for later use.
• 1) all components of the kit were thawed in an ice bath and placed on ice for later use; • 2) an incubation system (taking 200 μL system as an example) was prepared:
• 3) 160 μL of pre-incubation solution B was added into the centrifuge tube containing 40 μL of pre-incubation solution A, uniform mixing was performed by pipetting three times, and the resulting mixture was immediately placed in a water bath at 37° C. for incubation and timing was started; • 4) at predetermined incubation time points (0, 5, 10, 15, 30, 45, 60 minutes), the incubation solution was quantitatively taken out, and 200 μL of stop solution (5 ng/mL testosterone-D3 in acetonitrile, pre-chilled at 4° C.) was added to terminate the reaction (stop solution volume: incubation system volume=1:1). Experimental samples were prepared in triplicate at each time point.
To verify the validity of the experiment, a positive control group was established concurrently in the whole experiment to evaluate whether the incubation system functioned properly, with the preparation method as follows: the compound to be tested was replaced with the positive substrate testosterone (200 μM in acetonitrile) from the phase I metabolic stability kit, and the other components of the incubation system and experimental method were the same as those of the experimental group.
The ratio of the chromatographic peak area of the compound to be tested to the chromatographic peak area of the testosterone-D3 (internal standard) was used as the calculated data. By taking the peak area ratio at time zero of the test compound as 100%, the remaining percentages were calculated by comparing the peak area ratio at each time point with the peak area ratio at time zero, and the natural logarithms of the remaining percentages of the substrate at each time point are then subjected to linear regression against the incubation times to obtain the slope k. Therefore, the in vitro metabolic half-life (T1/2) and intrinsic clearance (CLint) were calculated using the following formulas: […]

As to `C[C@]12CC[C@H]3[C@@H](CCC4=CC(=O)CC[C@@]43C)[C@@H]1CC[C@@H]2O` [Positive control, testosterone], the “Peak area ratio (test compound/testosterone-D3 (internal standard)), mean value” (incubation time 0 min) is on record as 20.01 and the “Peak area ratio (test compound/testosterone-D3 (internal standard)), mean value” (incubation time 10 min) was found to be 0.06. Besides, the “Peak area ratio (test compound/testosterone-D3 (internal standard))” value runs as follows: (incubation time 0 min) 20.12 and 19.58 and 20.33; (incubation time 10 min) 0.05 and 0.08 and 0.06.
